Read-outs that look alike come from different tables or passages of the source.
Molecular target: T1, hAhR (Homo sapiens, UniProt P35869)
T1 construct: Stably integrated DRE-luciferase cell lines were generated by transducing the both cell lines with Cignal XRE luciferase reporter (Qiagen) lentiviral particles; endogenous in cells; host or cells: HEPG2 (human hepatoma) with stably integrated XRE/DRE-luciferase reporter
T1 sequence (P35869 11-848): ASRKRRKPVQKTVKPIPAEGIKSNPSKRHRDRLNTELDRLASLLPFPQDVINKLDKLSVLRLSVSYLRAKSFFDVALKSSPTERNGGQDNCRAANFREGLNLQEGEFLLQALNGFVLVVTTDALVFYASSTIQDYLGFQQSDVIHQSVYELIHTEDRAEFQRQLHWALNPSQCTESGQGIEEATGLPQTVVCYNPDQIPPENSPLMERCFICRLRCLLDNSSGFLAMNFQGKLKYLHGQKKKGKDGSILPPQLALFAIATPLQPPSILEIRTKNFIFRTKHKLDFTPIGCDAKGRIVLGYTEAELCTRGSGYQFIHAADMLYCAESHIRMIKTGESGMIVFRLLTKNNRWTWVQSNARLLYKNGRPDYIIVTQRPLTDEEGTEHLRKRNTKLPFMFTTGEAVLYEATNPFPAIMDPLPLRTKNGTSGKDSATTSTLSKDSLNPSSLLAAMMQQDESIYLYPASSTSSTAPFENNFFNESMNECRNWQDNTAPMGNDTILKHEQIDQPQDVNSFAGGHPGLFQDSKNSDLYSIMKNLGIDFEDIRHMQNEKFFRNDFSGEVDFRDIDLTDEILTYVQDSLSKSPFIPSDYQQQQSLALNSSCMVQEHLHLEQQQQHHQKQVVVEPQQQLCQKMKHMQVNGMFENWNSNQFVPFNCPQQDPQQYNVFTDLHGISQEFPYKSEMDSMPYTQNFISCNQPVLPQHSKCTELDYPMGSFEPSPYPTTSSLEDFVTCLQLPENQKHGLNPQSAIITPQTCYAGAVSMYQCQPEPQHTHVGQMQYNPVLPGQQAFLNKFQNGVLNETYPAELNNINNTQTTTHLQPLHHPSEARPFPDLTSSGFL
Assay: DRE-luciferase transcriptional assay, antagonist mode, in HEPG2 DRE-Luc cells stimulated with TCDD
Assay type: cell-based
Details: for Emax: read-out: HEPG2 % Max Inhibition
Description: HEPG2 and HEPA1C1C7 cells were maintained in MEM and αMEM without nucleosides supplemented with 10% heat inactivated FBS respectively. Stably integrated DRE-luciferase cell lines were generated by transducing the both cell lines with Cignal XRE luciferase reporter (Qiagen) lentiviral particles according to the manufacturer protocol. For both cell lines stably integrated reporter cell lines were selected for the presence of 2 μg/mL puromycin. Following selection of stably integrated cell line pools, clonal cell lines were isolated by limiting dilution in 96-well plates. Transcriptional assays were performed by seeding 100 μL of cells at a density of 250,000 or 100,000 cells/mL, for HEPG2 and HEPA1C1C7 DRE-Luc cells respectively, into 96-well cell culture plates in OptiMEM supplemented with 0.5% heat inactivated FBS and allowed to attach overnight. For antagonist assays, the compounds were added in a semi-log dose response using a D300e Digital Dispenser (Tecan) followed normalization with vehicle (DMSO). Immediately following compound addition […] of 2,3,7,8-Tetrachlorodibenzo-p-dioxin (TCDD) was added to the cells to a final concentration of 3 nM or 0.3 nM for the HEPG2 and HEPA1C1C7 DRE-Luc cells respectively. Following 24 h incubation the medium was removed and the cells were lysed in 25 μL of Reporter Lysis Buffer (Promega). Firefly luciferase activity was measured immediately following the addition of 50 μL Luciferase Assay Reagent (Promega). The percent maximal activity for each point was determined using the following equation: 100−(RLUsample−RLUvehicle−TCDD)/(RLUvehicle+TCDD RLUvehicle−TCDD)*100. The relative IC50, defined as the compound concentration required to reduce the TCDD induced response between the top and bottom plateau of each individual dose response curve by half, for each compound was determined using Prism 7 (GraphPad Software).

[1] = HEPG2 DRE-Luc cells, 3 nM TCDD, 24 h incubation
[2] = HEPG2 DRE-Luc cells, 3 nM TCDD, 24 h incubation, relative IC50, read-out: IC50 hAhR (antagonist mode)

Emax [1] [%] | IC50 [2] [nM] | SMILES | Emax (HepG2, 24 h) [%] | IC50 [nM]
100 | 500 to 1000 | Cc1cncc(-c2cn3c(C(C)C)nnc3c(NCCc3ccc(O)cc3)n2)c1 [Example 1] | – | –
100 | < 200 | CC(C)c1nnc2c(NCCc3ccc(O)cc3)nc(-c3cncc(C#N)c3)cn12 [Example 2, 5-(8-{[2-(4-hydroxyphenyl)ethyl]amino}-3-isopropyl-4-hydro-1,2,4-triazolo[4,3-a]pyrazin-6-yl)pyridine-3-carbonitrile] | – | –
100 | < 200 | Cc1cncc(-c2cn3c(C(C)C)nnc3c(NCCc3c[nH]c4ccccc34)n2)c1 [Example 3] | – | –
100 | < 200 | CC(C)c1nnc2c(NCCc3c[nH]c4ccccc34)nc(-c3cncc(C#N)c3)cn12 [Example 4, 5-{8-[(2-indol-3-ylethyl)amino]-3-isopropyl-4-hydro-1,2,4-triazolo[4,3-a]pyrazin-6-yl}pyridine-3-carbonitrile] | – | –
65 | 500 to 1000 | Cc1cncc(-c2cn3c(C(C)C)cnc3c(NCCc3ccc(O)cc3)n2)c1 [Example 5] | – | –
100 | 200 to 500 | CC(C)c1cnc2c(NCCc3ccc(O)cc3)nc(-c3cncc(C#N)c3)cn12 [Example 6, 5-(8-{[2-(4-hydroxyphenyl)ethyl]amino}-3-isopropyl-4-hydroimidazo[1,2-a]pyrazin-6-yl)pyridine-3-carbonitrile] | – | –
100 | < 200 | Cc1cncc(-c2cn3c(C(C)C)cnc3c(NCCc3c[nH]c4ccccc34)n2)c1 [Example 7, (2-indol-3-ylethyl)[6-(5-methyl(3-pyridyl))-3-isopropyl-(4-hydroimidazo[1,2-a]pyrazin-8-yl)]amine] | – | –
100 | < 200 | CC(C)c1cnc2c(NCCc3c[nH]c4ccccc34)nc(-c3cncc(C#N)c3)cn12 [Example 8, 5-{8-[(2-indol-3-ylethyl)amino]-3-isopropyl-4-hydroimidazo[1,5-a]pyrazin-6-yl}pyridine-3-carbonitrile] | – | –
100 | 200 to 500 | Cc1cncc(-c2cn3c(C(C)C)ncc3c(NCCc3c[nH]c4ccccc34)n2)c1 [Example 9] | – | –
100 | < 200 | Cc1nccn1-c1cn2c(C(C)C)cnc2c(NCCc2c[nH]c3cc(F)ccc23)n1 [Example 12, [2-(6-fluoroindol-3-yl)ethyl][3-isopropyl-6-(2-methylimidazolyl)(4-hydroimidazo[1,2-a]pyrazin-8-yl)]amine] | – | –
99 | – | Cc1nccn1-c1cn2c(C(C)C)cnc2c(NCCc2c[nH]c3ccc(F)cc23)n1 [Example 13, [2-(5-fluoroindol-3-yl)ethyl][3-isopropyl-6-(2-methylimidazolyl)(4-hydroimidazo[1,2-a]-pyrazin-8-yl)]amine] | – | –
100 | < 200 | Cc1nccn1-c1cn2c(C(C)C)cnc2c(NCCc2c[nH]c3cccc(F)c23)n1 [Example 14, [2-(4-fluoroindol-3-yl)ethyl][3-isopropyl-6-(2-methylimidazolyl)(4-hydroimidazo[1,2-a]-pyrazin-8-yl)]amine] | – | –
73 | 1000 to 10000 | Cc1nccn1-c1cn2c(C(C)C)cnc2c(NCCc2c[nH]c3cccnc23)n1 [Example 15, [3-isopropyl-6-(2-methylimidazolyl)(4-hydroimidazo[1,2-a]pyrazin-8-yl)](2-pyrrolo[3,2-b]pyridin-3-ylethyl)amine] | – | –
83 | 1000 to 10000 | Cc1nccn1-c1cn2c(C(C)C)cnc2c(NCCc2c[nH]c3ncccc23)n1 [Example 16, [3-isopropyl-6-(2-methylimidazolyl)(4-hydroimidazo[1,2-a]pyrazin-8-yl)](2-pyrrolo[2,3-b]pyridin-3-ylethyl)amine] | – | –
100 | 500 to 1000 | Cc1nccn1-c1cn2c(C(C)C)cnc2c(N[C@H](C)Cc2c[nH]c3ccccc23)n1 [Example 17a] | – | –
81.3 | 1000 to 10000 | Cc1nccn1-c1cn2c(C(C)C)cnc2c(N[C@@H](C)Cc2c[nH]c3ccccc23)n1 [Example 17b, ((1S)-2-indol-3-yl-isopropyl)[3-isopropyl-6-(2-methylimidazolyl)(4-hydroimidazo[1,2-a]-pyrazin-8-yl)]amine] | – | –
77 | 1000 to 10000 | Cc1nccn1-c1cn2c(C(C)C)cnc2c(NCCc2cc[nH]c2)n1 [Example 18, [3-isopropyl-6-(2-methylimidazolyl)(4-hydroimidazo[1,2-a]pyrazin-8-yl)](2-pyrrol-3-ylethyl)amine] | – | –
100 | < 200 | CC(C)c1cnc2c(NCCn3c(=O)[nH]c4ccccc43)nc(-c3cncc(F)c3)cn12 [Example 19] | – | –
100 | < 200 | CC(C)c1cnc2c(NCCc3n[nH]c4ccccc34)nc(-c3cncc(F)c3)cn12 [Example 20] | – | –
100 | < 200 | Cc1nccn1-c1cn2c(C(C)C)cnc2c(NCCc2c[nH]c3cc(F)cc(F)c23)n1 [Example 22, [2-(4,6-difluoroindol-3-yl)ethyl][3-isopropyl-6-(2-methylimidazolyl)(4-hydroimidazo[1,2-a]pyrazin-8-yl)]amine] | – | –
12 | 1000 to 10000 | Cc1nccn1-c1cn2c(C(C)C)cnc2c(NCc2cccc(C(N)=O)c2)n1 [Example 23, 3-({[3-isopropyl-6-(2-methylimidazolyl)-4-hydroimidazo[1,2-a]pyrazin-8-yl]amino}-methyl)benzamide] | – | –
100 | < 200 | CC(C)c1cnc2c(NCCc3c[nH]c4cccc(F)c34)nc(-c3cnn(C)c3)cn12 [Example 25, [2-(4-fluoroindol-3-yl)ethyl][3-isopropyl-6-(1-methylpyrazol-4-yl)(4-hydroimidazo[1,2-a]-pyrazin-8-yl)]amine] | – | –
98 | 200 to 500 | Cc1ncc(-c2cn3c(C(C)C)cnc3c(NCCc3c[nH]c4cccc(F)c34)n2)cc1F [Example 26] | – | –
100 | 200 to 500 | Cc1ncc(-c2cn3c(C(C)C)cnc3c(NCCc3c[nH]c4cccc(F)c34)n2)cn1 [Example 27, [2-(4-fluoroindol-3-yl)ethyl][3-isopropyl-6-(2-methylpyrimidin-5-yl)(4-hydroimidazo[1,2-a]pyrazin-8-yl)]amine] | – | –
33 | 500 to 1000 | CC(C)c1cnc2c(NCc3cccc4[nH]ccc34)nc(-c3cncc(F)c3)cn12 [Example 28] | – | –
– | – | CC(C)c1cnc2c(NCCn3ccc4ccccc43)nc(-c3cncc(F)c3)cn12 [Example 29] | 100 | 500 to 1000

SMILES | Emax [1] [%] | IC50 [2] [nM] | Emax (HepG2, 24 h) [%] | IC50 [nM]
Cc1cncc(-c2cn3c(C(C)C)ncc3c(NCCc3ccc(O)cc3)n2)c1 [Example 10, 4-(2-{[6-(5-methyl(3-pyridyl))-3-isopropyl-4-hydroimidazo[1,5-a]pyrazin-8-yl]amino}ethyl)phenol] | – | 1000 to 10000 | 47 | –
Cc1nccn1-c1cn2c(C(C)C)cnc2c(NCCc2c[nH]c3c(F)cccc23)n1 [Example 11, [2-(7-fluoroindol-3-yl)ethyl][3-isopropyl-6-(2-methylimidazolyl)(4-hydroimidazo[1,2-a]pyrazin-8-yl)]amine] | – | < 200 | 100 | –
CC(CO)c1cnc2c(NCCc3c[nH]c4cccc(F)c34)nc(-c3cncc(F)c3)cn12 (centres unmarked) [Example 21, 2-(6-(5-fluoro-(3-pyridyl))-8-{[2-(4-fluoroindol-3-yl)ethyl]amino}-4-hydroimidazo[1,2-a]pyrazin-3-yl)propan-1-ol] | – | < 200 | 100 | –
CC(C)c1cnc2c(NCCc3c[nH]c4cccc(F)c34)nc(-c3cncc(F)c3)cn12 [Example 24] | – | < 200 | 100 | –
